The source of these data is article PMC5218480 (PLoS ONE, 2017).

The test system of this assay is MV-4-11 cells. Briefly: Gene expression microarray analysis (Affymetrix PrimeView) and GSEA. The assay is classed as cell-based, human. Further details: RFU PODN (11730768_x_at) / Fold change /veh PODN (11730768_x_at) / RFU LINC00158 (11744669_a_at) / Fold change /veh LINC00158 (11744669_a_at) / RFU DUSP10 (11751237_a_at) / Fold change /veh DUSP10 (11751237_a_at) / RFU ID3 (11757404_x_at) / Fold change /veh ID3 (11757404_x_at) / RFU PLEKHG5 (11737974_s_at) / Fold change /veh PLEKHG5 (11737974_s_at) / RFU LRRC4B (11730491_at) / Fold change /veh LRRC4B (11730491_at) / RFU GIMAP4 (11747438_a_at) / Fold change /veh GIMAP4 (11747438_a_at) / RFU KRT8 (11758183_x_at) / Fold change /veh KRT8 (11758183_x_at) / RFU CNN1 (11734310_a_at) / Fold change /veh CNN1 (11734310_a_at) / RFU VPS37D (11726825_at) / Fold change /veh VPS37D (11726825_at) / RFU C10orf10 (11716522_x_at) / Fold change /veh C10orf10 (11716522_x_at) / RFU KIR2DL2 /// KIR2DL4 /// KIR2DL5A /// KIR2DL5B /// KIR2DS1 /// KIR2DS2 /// KIR2DS3 /// KIR2DS4 /// KIR3DL3 /// KIR3DL3 /// KIR3DS1 (11738374_at) / Fold change /veh KIR2DL2 /// KIR2DL4 /// KIR2DL5A /// KIR2DL5B /// KIR2DS1 /// KIR2DS2 /// KIR2DS3 /// KIR2DS4 /// KIR3DL3 /// KIR3DL3 /// KIR3DS1 (11738374_at) / RFU C1QL1 (11718748_at) / Fold change /veh C1QL1 (11718748_at) / RFU TMPRSS4 (11747572_a_at) / Fold change /veh TMPRSS4 (11747572_a_at) / RFU HAMP (11756126_x_at) / Fold change /veh HAMP (11756126_x_at) / RFU RNFT2 (11725882_a_at) / Fold change /veh RNFT2 (11725882_a_at) / RFU NR4A2 (11747474_a_at) / Fold change /veh NR4A2 (11747474_a_at) / RFU ABCC12 (11746883_a_at) / Fold change /veh ABCC12 (11746883_a_at) / RFU TMEM136 (11760407_x_at) / Fold change /veh TMEM136 (11760407_x_at) / RFU CLDN22 /// WWC2 (11732394_at) / Fold change /veh CLDN22 /// WWC2 (11732394_at) / RFU HLA-DPB1 (11760878_x_at) / Fold change /veh HLA-DPB1 (11760878_x_at) / RFU SPINT1 (11716480_a_at) / Fold change /veh SPINT1 (11716480_a_at) / RFU GAP43 (11754022_s_at) / Fold change /veh GAP43 (11754022_s_at) / RFU A4GNT (11735810_at) / Fold change /veh A4GNT (11735810_at) / RFU PRB3 (11715151_x_at) / Fold change /veh PRB3 (11715151_x_at) / RFU TUBB4B (11761932_at) / Fold change /veh TUBB4B (11761932_at) / RFU CAPN14 (11732068_a_at) / Fold change /veh CAPN14 (11732068_a_at) / RFU TMCC2 (11721928_a_at) / Fold change /veh TMCC2 (11721928_a_at) / RFU IRGQ (11745062_a_at) / Fold change /veh IRGQ (11745062_a_at) / RFU FAM174B (11720279_a_at) / Fold change /veh FAM174B (11720279_a_at) / RFU TMPRSS4 (11748680_a_at) / Fold change /veh TMPRSS4 (11748680_a_at) / RFU FAM212B (11763350_a_at) / Fold change /veh FAM212B (11763350_a_at) / RFU PLEKHG5 (11743358_a_at) / Fold change /veh PLEKHG5 (11743358_a_at) / RFU ZSCAN30 (11745921_a_at) / Fold change /veh ZSCAN30 (11745921_a_at) / RFU CMKLR1 (11741424_a_at) / Fold change /veh CMKLR1 (11741424_a_at) / RFU LOC101060620 /// MAPK8IP1 (11723275_at) / Fold change /veh LOC101060620 /// MAPK8IP1 (11723275_at) / RFU SPTSSB (11747773_x_at) / Fold change /veh SPTSSB (11747773_x_at) / RFU PRSS12 (11739890_at) / Fold change /veh PRSS12 (11739890_at) / RFU BIN1 (11741810_x_at) / Fold change /veh BIN1 (11741810_x_at) / RFU WNT11 (11732464_a_at) / Fold change /veh WNT11 (11732464_a_at) / RFU C10orf10 (11716521_a_at) / Fold change /veh C10orf10 (11716521_a_at) / RFU C5orf56 (11738089_at) / Fold change /veh C5orf56 (11738089_at) / RFU CYB561 (11721691_x_at) / Fold change /veh CYB561 (11721691_x_at) / RFU ANKRD19P (11752326_a_at) / Fold change /veh ANKRD19P (11752326_a_at) / RFU OR2T12 /// OR2T33 /// OR2T8 (11738714_s_at) / Fold change /veh OR2T12 /// OR2T33 /// OR2T8 (11738714_s_at) / RFU VCAN (11748164_a_at) / Fold change /veh VCAN (11748164_a_at) / RFU JSRP1 (11732532_at) / Fold change /veh JSRP1 (11732532_at) / RFU KRTAP10-11 (11738290_x_at) / Fold change /veh KRTAP10-11 (11738290_x_at) / RFU MYO3A (11730013_a_at) / Fold change /veh MYO3A (11730013_a_at) / RFU EBF3 (11725865_a_at) / Fold change /veh EBF3 (11725865_a_at) / RFU CAMK2N1 (11719241_x_at) / Fold change /veh CAMK2N1 (11719241_x_at) / RFU C5orf56 (11738088_a_at) / Fold change /veh C5orf56 (11738088_a_at) / RFU OLFML3 (11715873_a_at) / Fold change /veh OLFML3 (11715873_a_at) / RFU LOC100653217 /// NTM (11731650_a_at) / Fold change /veh LOC100653217 /// NTM (11731650_a_at) / RFU MAPK11 (11762145_a_at) / Fold change /veh MAPK11 (11762145_a_at) / RFU FIZ1 (11724087_x_at) / Fold change /veh FIZ1 (11724087_x_at) / RFU OASL (11726364_x_at) / Fold change /veh OASL (11726364_x_at) / RFU SOX15 (11748057_x_at) / Fold change /veh SOX15 (11748057_x_at) / RFU CD79A (11719716_a_at) / Fold change /veh CD79A (11719716_a_at) / RFU HIST1H1D (11736915_at) / Fold change /veh HIST1H1D (11736915_at) / RFU CASKIN2 (11723855_a_at) / Fold change /veh CASKIN2 (11723855_a_at) / RFU LOC730098 (11760151_x_at) / Fold change /veh LOC730098 (11760151_x_at) / RFU OR4N2 (11742367_at) / Fold change /veh OR4N2 (11742367_at) / RFU PRRT2 (11749266_a_at) / Fold change /veh PRRT2 (11749266_a_at) / RFU SNX32 (11753110_a_at) / Fold change /veh SNX32 (11753110_a_at) / RFU CDHR5 (11726645_a_at) / Fold change /veh CDHR5 (11726645_a_at) / RFU RCAN1 (11760418_a_at) / Fold change /veh RCAN1 (11760418_a_at) / RFU FAM167A (11723789_a_at) / Fold change /veh FAM167A (11723789_a_at) / RFU FAM26E (11764081_at) / Fold change /veh FAM26E (11764081_at) / RFU ISYNA1 (11749810_s_at) / Fold change /veh ISYNA1 (11749810_s_at) / RFU ACY1 (11761880_at) / Fold change /veh ACY1 (11761880_at) / RFU 11764098_at / Fold change /veh 11764098_at / RFU SAMD14 (11745864_x_at) / Fold change /veh SAMD14 (11745864_x_at) / RFU NPB (11741838_a_at) / Fold change /veh NPB (11741838_a_at) / RFU TMPRSS6 (11731388_a_at) / Fold change /veh TMPRSS6 (11731388_a_at) / RFU KRTAP10-2 (11738614_at) / Fold change /veh KRTAP10-2 (11738614_at) / RFU ARHGAP8 /// PRR5-ARHGAP8 (11727945_x_at) / Fold change /veh ARHGAP8 /// PRR5-ARHGAP8 (11727945_x_at) / RFU KRTAP5-7 /// NADSYN1 (11734609_at) / Fold change /veh KRTAP5-7 /// NADSYN1 (11734609_at) / RFU RASL12 (11751679_a_at) / Fold change /veh RASL12 (11751679_a_at) / RFU CDKN2B (11736163_a_at) / Fold change /veh CDKN2B (11736163_a_at) / RFU PRF1 (11729649_at) / Fold change /veh PRF1 (11729649_at) / RFU, ZNF638 /// ZNF638-IT1 / Fold change vs veh, ZNF638 /// ZNF638-IT1 / RFU, PANK3 / Fold change vs veh, PANK3 / RFU, SH3YL1 / Fold change vs veh, SH3YL1 / RFU, ZEB2 / Fold change vs veh, ZEB2 / RFU, NRIP1 / Fold change vs veh, NRIP1 / RFU, PTTG1IP / Fold change vs veh, PTTG1IP / RFU, CAPN2 / Fold change vs veh, CAPN2 / RFU, MED14 / Fold change vs veh, MED14 / RFU, SNORA58 / Fold change vs veh, SNORA58 / RFU, C1orf63 / Fold change vs veh, C1orf63 / RFU, LRRFIP1 / Fold change vs veh, LRRFIP1 / RFU, NDUFAF7 / Fold change vs veh, NDUFAF7 / RFU, SLC12A2 / Fold change vs veh, SLC12A2 / RFU, IBTK / Fold change vs veh, IBTK / RFU, ESF1 / Fold change vs veh, ESF1 / Fold change vs veh, TMEM50B / RFU, TAOK1 / Fold change vs veh, TAOK1 / RFU, ACBD3 / Fold change vs veh, ACBD3 / RFU, TMA16 / Fold change vs veh, TMA16 / RFU, RWDD3 / Fold change vs veh, RWDD3 / RFU, BCAT1 / Fold change vs veh, BCAT1 / RFU, EDEM3 / Fold change vs veh, EDEM3 / RFU, TMEM33 / Fold change vs veh, TMEM33 / RFU, WDR75 / Fold change vs veh, WDR75 / RFU, AHCTF1 / Fold change vs veh, AHCTF1 / RFU, TFRC / Fold change vs veh, TFRC / RFU, ZDHHC17 / Fold change vs veh, ZDHHC17 / RFU, NOM1 / Fold change vs veh, NOM1 / RFU, ARL8B / Fold change vs veh, ARL8B / RFU, ZBTB11 / Fold change vs veh, ZBTB11 / RFU, TAMM41 / Fold change vs veh, TAMM41 / RFU, KIAA1704 /// LOC100996395 / Fold change vs veh, KIAA1704 /// LOC100996395 / RFU, ING1 / Fold change vs veh, ING1 / RFU, TRMT61B / Fold change vs veh, TRMT61B / RFU, FUBP3 / Fold change vs veh, FUBP3 / RFU, TP53 / Fold change vs veh, TP53 / RFU, TNKS2 / Fold change vs veh, TNKS2 / RFU, ZFP14 / Fold change vs veh, ZFP14 / RFU, ACTR2 / Fold change vs veh, ACTR2 / RFU, PPP3R1 / Fold change vs veh, PPP3R1 / RFU, PIK3R1 / Fold change vs veh, PIK3R1 / RFU, HNRNPA1 / Fold change vs veh, HNRNPA1 / RFU, RNF170 / Fold change vs veh, RNF170 / RFU, ZNF28 / Fold change vs veh, ZNF28 / RFU, RNGTT / Fold change vs veh, RNGTT / RFU, OGT / Fold change vs veh, OGT / RFU, BRD1 / Fold change vs veh, BRD1 / RFU, MARS / Fold change vs veh, MARS / RFU, ZNF655 / Fold change vs veh, ZNF655 / RFU, FAHD1 / Fold change vs veh, FAHD1 / RFU, BDP1 / Fold change vs veh, BDP1 / RFU, LRRCC1 / Fold change vs veh, LRRCC1 / RFU, ARID1A / Fold change vs veh, ARID1A / RFU, ZNF146 / Fold change vs veh, ZNF146 / RFU, ZNF330 / Fold change vs veh, ZNF330 / RFU, GPN3 / Fold change vs veh, GPN3 / RFU, C9orf123 / Fold change vs veh, C9orf123 / RFU, N4BP2L2 / Fold change vs veh, N4BP2L2 / RFU, ARFIP1 / Fold change vs veh, ARFIP1 / RFU, FAM179B / Fold change vs veh, FAM179B / RFU, BCL10 / Fold change vs veh, BCL10 / RFU, UHRF1BP1L / Fold change vs veh, UHRF1BP1L / RFU, BET1 / Fold change vs veh, BET1 / RFU, CNOT2 / Fold change vs veh, CNOT2 / RFU, ZNF268 / Fold change vs veh, ZNF268 / Fold change vs veh, ZNF507 / RFU, DGCR2 / Fold change vs veh, DGCR2 / RFU, WDSUB1 / Fold change vs veh, WDSUB1 / Fold change vs veh, HSP90B1 /// MIR3652 / RFU, ADSS / Fold change vs veh, ADSS / RFU, GK / Fold change vs veh, GK / RFU, ZNF148 / Fold change vs veh, ZNF148 / RFU, TAF9 / Fold change vs veh, TAF9 / RFU, SLC1A5 / Fold change vs veh, SLC1A5 / RFU, SLMO2 / Fold change vs veh, SLMO2 / RFU, ABCC4 / Fold change vs veh, ABCC4 / RFU, LOC101060439 /// RAP1B / Fold change vs veh, LOC101060439 /// RAP1B / RFU, RFX7 / Fold change vs veh, RFX7 / RFU, GTPBP10 / Fold change vs veh, GTPBP10 / RFU, CNEP1R1 / Fold change vs veh, CNEP1R1 / RFU, BIVM-ERCC5 /// ERCC5 / Fold change vs veh, BIVM-ERCC5 /// ERCC5 / RFU, ILF3 / Fold change vs veh, ILF3 / RFU 11762660_at / Fold change /veh 11762660_at / RFU VCAN (11757783_s_at) / Fold change /veh VCAN (11757783_s_at) / RFU DDX43 (11728927_at) / Fold change /veh DDX43 (11728927_at) / RFU KRT8 (11758188_x_at) / Fold change /veh KRT8 (11758188_x_at) / RFU NKD1 (11759106_at) / Fold change /veh NKD1 (11759106_at) / RFU SRD5A1 (11742802_a_at) / Fold change /veh SRD5A1 (11742802_a_at) / RFU TPSAB1 /// TPSB2 (11721975_s_at) / Fold change /veh TPSAB1 /// TPSB2 (11721975_s_at) / RFU GSTM3 (11746129_a_at) / Fold change /veh GSTM3 (11746129_a_at) / RFU IL23R (11737362_x_at) / Fold change /veh IL23R (11737362_x_at) / RFU TMEM51 (11727254_a_at) / Fold change /veh TMEM51 (11727254_a_at) / RFU PIWIL2 (11732686_x_at) / Fold change /veh PIWIL2 (11732686_x_at) / RFU ORM1 (11744905_x_at) / Fold change /veh ORM1 (11744905_x_at) / RFU CCDC152 (11743942_at) / Fold change /veh CCDC152 (11743942_at) / RFU ECM1 (11717891_a_at) / Fold change /veh ECM1 (11717891_a_at) / RFU IL23R (11748794_a_at) / Fold change /veh IL23R (11748794_a_at) / RFU TNFAIP8L3 (11732012_x_at) / Fold change /veh TNFAIP8L3 (11732012_x_at) / RFU MBOAT4 (11741988_at) / Fold change /veh MBOAT4 (11741988_at) / RFU 11764193_at / Fold change /veh 11764193_at / RFU TMEM53 (11763286_at) / Fold change /veh TMEM53 (11763286_at) / RFU MAGEB2 (11727129_at) / Fold change /veh MAGEB2 (11727129_at) / RFU TMEM200A (11744735_a_at) / Fold change /veh TMEM200A (11744735_a_at) / RFU CCDC152 (11751479_a_at) / Fold change /veh CCDC152 (11751479_a_at) / RFU FAM211A (11726209_a_at) / Fold change /veh FAM211A (11726209_a_at) / RFU RGS16 (11746705_a_at) / Fold change /veh RGS16 (11746705_a_at) / RFU VCAN (11755009_s_at) / Fold change /veh VCAN (11755009_s_at) / RFU RHOB (11743442_s_at) / Fold change /veh RHOB (11743442_s_at) / RFU RGS16 (11720943_a_at) / Fold change /veh RGS16 (11720943_a_at) / RFU RGS16 (11720944_at) / Fold change /veh RGS16 (11720944_at) / RFU, VPS4B / Fold change vs veh, VPS4B / RFU, CREB1 / Fold change vs veh, CREB1 / RFU, DNAJC13 / Fold change vs veh, DNAJC13 / RFU, GNAQ / Fold change vs veh, GNAQ / RFU, CDK5R1 / Fold change vs veh, CDK5R1 / RFU, ZRANB3 / Fold change vs veh, ZRANB3 / RFU, CUL4A / Fold change vs veh, CUL4A / RFU, CCNY / Fold change vs veh, CCNY / RFU, UFL1 / Fold change vs veh, UFL1 / RFU, COG3 / Fold change vs veh, COG3 / RFU, DIAPH2 / Fold change vs veh, DIAPH2 / RFU, SKA2 / Fold change vs veh, SKA2 / RFU, AFF3 / Fold change vs veh, AFF3 / RFU, LMF1 / Fold change vs veh, LMF1 / RFU, IPO11 / Fold change vs veh, IPO11 / RFU, DFFB / Fold change vs veh, DFFB / RFU, FOXP1 / Fold change vs veh, FOXP1 / RFU, CARD8 / Fold change vs veh, CARD8 / RFU, STRN3 / Fold change vs veh, STRN3 / RFU, ADK / Fold change vs veh, ADK / RFU, RASSF2 / Fold change vs veh, RASSF2 / RFU, WIPF1 / Fold change vs veh, WIPF1 / RFU, LARP1B / Fold change vs veh, LARP1B / RFU, RASA1 / Fold change vs veh, RASA1 / RFU, RB1 / Fold change vs veh, RB1 / RFU, PPFIA1 / Fold change vs veh, PPFIA1 / RFU, MAT2A / Fold change vs veh, MAT2A / RFU, CCT5 / Fold change vs veh, CCT5 / RFU, WDR92 / Fold change vs veh, WDR92 / RFU, CUX1 / Fold change vs veh, CUX1 / RFU, TTC7A / Fold change vs veh, TTC7A / RFU, TMEM135 / Fold change vs veh, TMEM135 / RFU, DEPTOR / Fold change vs veh, DEPTOR / RFU, CPM / Fold change vs veh, CPM / RFU, DNAJB6 / Fold change vs veh, DNAJB6 / RFU, CACNA2D3 / Fold change vs veh, CACNA2D3 / RFU, DTX4 / Fold change vs veh, DTX4 / RFU, TFCP2 / Fold change vs veh, TFCP2 / RFU, GMCL1 /// GMCL1P1 / Fold change vs veh, GMCL1 /// GMCL1P1 / RFU, AEBP2 / Fold change vs veh, AEBP2 / RFU, SNHG1 /// SNORD22 /// SNORD25 /// SNORD26 /// SNORD27 /// SNORD28 /// SNORD29 /// SNORD31 / Fold change vs veh, SNHG1 /// SNORD22 /// SNORD25 /// SNORD26 /// SNORD27 /// SNORD28 /// SNORD29 /// SNORD31 / Fold change (Aza/veh), C12orf56 (ProbeSet 11735607_a_at) / Fold change (ACY-1035/veh), C12orf56 (ProbeSet 11735607_a_at) / Fold change (Aza/veh), FGFR1OP (ProbeSet 11751329_s_at) / Fold change (ACY-1035/veh), FGFR1OP (ProbeSet 11751329_s_at) / Fold change (Aza/veh), VPS36 (ProbeSet 11739960_a_at) / Fold change (ACY-1035/veh), VPS36 (ProbeSet 11739960_a_at) / RFU SYPL1 (11715823_x_at) / Fold change /veh SYPL1 (11715823_x_at) / RFU IGFBP7 (11715501_s_at) / Fold change /veh IGFBP7 (11715501_s_at) / RFU REEP3 (11722064_at) / Fold change /veh REEP3 (11722064_at) / RFU IGLL1 (11728026_x_at) / Fold change /veh IGLL1 (11728026_x_at): dose or concentration left out as unconfirmed. To be noted: MV-4-11 cells, 48 hours.

Consider `Nc1ccc(-c2cccs2)cc1NC(=O)c1ccc2c(c1)cc(C1CC1)n2CCN1CCOCC1` [ACY-1035], for which the “RFU CNN1 (11734310_a_at)” value is 26.40 RFU.
